From ChEMBL document CHEMBL5729078, “Inhibitors of cysteine proteases and methods of use thereof” (2022)

experiment: Evaluation of Antiviral Activity of Compounds Against Human Coronavirus (HCov) 229E and OC43 in the Cytopathic Effect (CPE) Assays: Compounds were assayed using standard methods against multiple coronaviral strains, including HCoV 229E and OC43 strains.

Structure (SMILES)	EC50	IC50
COc1cccc2[nH]c(C(=O)N3CC4(CCC4)C[C@@H]3C(=O)N[C@H](C#N)C[C@@H]3CCCNC3=O)cc12 (single isomer, unassigned; isomer 2)	< 2000 nM	
COc1cccc2[nH]c(C(=O)N[C@@H](CC3CC3)C(=O)N[C@@]3(C#N)C[C@@H]4CC[C@@H]3[C@H]3C(=O)NC(=O)[C@@H]43)cc12 (single isomer, unassigned; isomer 1)		> 30000 nM
N#C[C@H](C[C@@H]1CCCNC1=O)NC(=O)[C@H]1CC2(CN1C(=O)c1cc3cccc(Cl)c3[nH]1)CC(F)(F)C2 (single isomer, unassigned)	< 2000 nM	< 2000 nM
N#C[C@H](C[C@@H]1CCCNC1=O)NC(=O)[C@@H]1CC2(CCCCC2)CN1C(=O)c1cc2ccc(Cl)cc2[nH]1 (single isomer, unassigned)	< 2000 nM	< 2000 nM
CCCOc1cccc2[nH]c(C(=O)N[C@@H](CC(C)C)C(=O)N[C@H](C#N)C[C@@H]3CCNC3=O)cc12	< 2000 nM	
